Consider 7 compounds from patent US9249125B2, “Pyrazole derivatives as p38 MAP inhibitors” (RESPIVERT LIMITED, priority 2012, dated 2016).

In general, IC50 refers to the concentration at which inhibition is half-maximal.

SMILES strings stand for the structures. Some results are limits rather than exact numbers.

Data set [1] deals with Poly I:C-induced ICAM-1 expression in BEAS2B cells. In words: Poly I:C-induced ICAM-1 expression in BEAS2B cells. It counts as cell-based. The following applies: Homo sapiens, BEAS-2B, read-out: Poly IC induced ICAM1 in BEAS2B IC50. The gist of the method: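 Cell-based ELISA read at 450 nm minus 655 nm, divided by crystal violet OD595 to normalize for cell number, gave ICAM-1 levels. Readout was taken 18 hr after poly I:C (1 μg/mL, Oligofectamine) transfection of human bronchial BEAS2B cells pretreated 2 hr with test compound.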

The test system of data set [2] is LPS-induced TNFα release in d-U937 cells. In words: LPS-induced TNFα release in d-U937 cells. It counts as cell-based. To be noted: Homo sapiens, dU937, relative to 10 μg/mL BIRB796, read-out: LPS Induced Release of Cytokine in d-937 Cells TNFα REC50. The gist of the method: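 Read-out: TNFα and IL-8 released into supernatant, sandwich ELISA, expressed as inhibition versus vehicle at each dose and fitted to give REC50. Cells were PMA-differentiated U937 (100 ng/mL, 48–72 hr), compound-exposed 2 hr before a 4 hr LPS stimulus (0.1 μg/mL).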

Data set [3] addresses p38 MAPKα (Homo sapiens (Human), UniProt Q16539). Kind of data set: p38 MAPKα enzyme inhibition (FRET, Z-LYTE). It counts as biochemical.
Data set [4] has as its system LPS-induced IL-8 release in d-U937 cells. Kind of data set: LPS-induced IL-8 release in d-U937 cells. It counts as cell-based. The following applies: Homo sapiens, dU937, read-out: LPS Induced Release of Cytokine in d-937 Cells IL-8 IC50. Put shortly:
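Sandwich ELISA of culture supernatant gives TNFα and IL-8 levels after a 4 hr challenge with LPS (0.1 μg/mL, E. coli O111:B4). Before stimulation, macrophage-like U937 cells, obtained by 48–72 hr in PMA at 100 ng/mL, sit with compound for 2 hr. Relative EC50 is derived from concentration-response data.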

The target in data set [5] is GSK3α (Homo sapiens (Human), UniProt P49840). Kind of data set: GSK 3α enzyme inhibition (FRET, Z-LYTE). It counts as biochemical. Put shortly: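 Phosphorylation was read as the donor (coumarin) to acceptor (fluorescein) ratio after a 1 hr protease step destroying non-phosphorylated peptide. Before this, compound (4–0.004 μg/mL stocks) sat 2 hr at RT with GSK3α (500 ng/mL stock), followed by 1 hr kinase reaction with 8 μM peptide and 40 μM ATP stocks.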

Data set [6] has as its target Syk (Homo sapiens (Human), UniProt P43405). Kind of data set: Syk enzyme inhibition (FRET, Z-LYTE). It counts as biochemical. The gist of the method:
(§1)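 Z-LYTE FRET kinase assay: enzyme (3000 or 2000 ng/mL stock, respectively) preincubated 2 h at RT with compound (4–0.004 μg/mL stocks), then FRET peptide plus ATP (800 μM stock for c-Src, 60 μM for Syk) added for 1 h. Protease development 1 h; phosphorylation from coumarin/fluorescein emission ratio.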

The target in data set [7] is cSrc (Homo sapiens (Human), UniProt P12931). Kind of data set: c-Src enzyme inhibition (FRET, Z-LYTE). It counts as biochemical. The gist of the method: as §1
The test system of data set [8] is d-U937 cells. Kind of data set: Cell viability: MTT assay. It counts as cell-based, human. The following applies: 1 μg/mL. Put shortly: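 MTT read-out (1 h, absorbance 550 nm) on d-U937 cells after pre-incubation with 1 or 10 μg/mL compound under two regimes: 4 h, 5% FCS, or 24 h, 10% FCS RPMI1640. Values are percent loss of viability relative to vehicle (0.5% DMSO), so increases are reported as negative.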
On the technique in general: Tetrazolium dyes change colour on reduction, which living cells bring about.

Sequence of cSrc (P12931 whole entry, looked up): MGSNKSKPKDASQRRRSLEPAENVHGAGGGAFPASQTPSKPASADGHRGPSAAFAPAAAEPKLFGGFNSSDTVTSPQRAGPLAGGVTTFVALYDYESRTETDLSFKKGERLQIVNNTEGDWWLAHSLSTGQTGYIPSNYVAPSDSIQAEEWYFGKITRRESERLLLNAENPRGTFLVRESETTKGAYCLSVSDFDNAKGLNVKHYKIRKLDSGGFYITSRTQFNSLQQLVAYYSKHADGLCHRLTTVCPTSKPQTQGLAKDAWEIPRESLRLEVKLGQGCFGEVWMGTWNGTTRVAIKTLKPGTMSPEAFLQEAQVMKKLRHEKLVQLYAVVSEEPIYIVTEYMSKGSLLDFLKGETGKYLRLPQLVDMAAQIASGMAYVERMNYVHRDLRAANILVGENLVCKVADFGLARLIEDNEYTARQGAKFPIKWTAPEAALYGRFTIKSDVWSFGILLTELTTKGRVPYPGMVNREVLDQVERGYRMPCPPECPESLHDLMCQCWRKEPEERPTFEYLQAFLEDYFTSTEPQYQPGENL
Sequence of p38 MAPKα (Q16539 whole entry): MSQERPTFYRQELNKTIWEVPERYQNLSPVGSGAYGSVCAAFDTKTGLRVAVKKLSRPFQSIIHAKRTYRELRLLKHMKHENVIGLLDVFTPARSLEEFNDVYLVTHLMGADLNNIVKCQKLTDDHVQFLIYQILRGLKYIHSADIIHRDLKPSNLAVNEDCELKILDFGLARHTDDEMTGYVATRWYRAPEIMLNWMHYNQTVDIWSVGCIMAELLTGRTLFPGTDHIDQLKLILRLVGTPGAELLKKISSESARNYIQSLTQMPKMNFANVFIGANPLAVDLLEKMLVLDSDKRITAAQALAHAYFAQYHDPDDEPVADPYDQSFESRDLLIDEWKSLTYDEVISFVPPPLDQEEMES
Sequence of GSK3α (P49840 whole entry): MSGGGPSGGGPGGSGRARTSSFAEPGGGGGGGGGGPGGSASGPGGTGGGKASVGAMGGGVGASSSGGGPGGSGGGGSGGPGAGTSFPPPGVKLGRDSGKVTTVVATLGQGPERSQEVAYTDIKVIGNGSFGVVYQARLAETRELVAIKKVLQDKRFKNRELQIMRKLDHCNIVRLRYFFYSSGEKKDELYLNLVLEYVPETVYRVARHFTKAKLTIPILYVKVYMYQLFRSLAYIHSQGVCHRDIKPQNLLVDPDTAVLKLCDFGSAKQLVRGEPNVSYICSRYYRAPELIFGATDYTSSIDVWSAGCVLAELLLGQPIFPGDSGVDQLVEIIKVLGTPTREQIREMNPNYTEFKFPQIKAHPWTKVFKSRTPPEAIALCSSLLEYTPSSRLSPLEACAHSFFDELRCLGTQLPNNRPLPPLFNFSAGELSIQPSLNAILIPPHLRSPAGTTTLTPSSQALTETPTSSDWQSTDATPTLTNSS

Regarding `CC(C)(C)c1cc(NC(=O)Nc2ccc(Oc3ccnc(Nc4ccc5c(c4)COC5)n3)c3ccccc23)n(-c2ccc(OCCN3CCOCC3)cc2)n1` [Example 60, 1-(3-(tert-butyl)-1-(4-(2-morpholinoethoxy)phenyl)-1H-pyrazol-5-yl)-3-(4-((2-((1,3-dihydroisobenzofuran-5-yl)amino)pyrimidin-4-yl)oxy)naphthalen-1-yl)urea], the IC50 in data set [1] turned out to be 1.4 nM; in data set [3], 94 nM; in data set [4], 10.3 nM; in data set [5] it was 686 nM; in data set [6], 13 nM; in data set [7], 2 nM. Besides, in data set [2], the EC50 was 1.8 nM. Moreover, the “MTT Assay Cell viability at time point in d-U937 cells 4 h” value in data set [8] is “−ve (−ve and +ve indicate that the value is below and above respectively, the no significant effect threshold, defined as 30% inhibition at 1 μg/mL at the time point indicated.)”. Also, the “MTT Assay Cell viability at time point in d-U937 cells 24 h” value in data set [8] is “−ve (−ve and +ve indicate that the value is below and above respectively, the no significant effect threshold, defined as 30% inhibition at 1 μg/mL at the time point indicated.)”.
With `CC(C)c1cc(NC(=O)Nc2ccc(Oc3ccnc(Nc4ccc5[nH]ncc5c4)n3)c3ccccc23)n(-c2cccc(OCCN3CCOCC3)c2)n1` [Example 53, 1-(4-((2-((1H-indazol-5-yl)amino)pyrimidin-4-yl)oxy)naphthalen-1-yl)-3-(3-isopropyl-1-(3-(2-morpholinoethoxy)phenyl)-1H-pyrazol-5-yl)urea], the IC50 was found to be 38.5 nM in data set [1]; 8 nM in data set [3]; 173 nM in data set [4]; 11300 nM in data set [5]; 3 nM in data set [6]; 4 nM in data set [7]. Besides, in data set [2], the EC50 is 49.1 nM. Further, the “MTT Assay Cell viability at time point in d-U937 cells 4 h” value in data set [8] is “−ve (−ve and +ve indicate that the value is below and above respectively, the no significant effect threshold, defined as 30% inhibition at 1 μg/mL at the time point indicated.)”. For the same compound, the “MTT Assay Cell viability at time point in d-U937 cells 24 h” value in data set [8] is “−ve (−ve and +ve indicate that the value is below and above respectively, the no significant effect threshold, defined as 30% inhibition at 1 μg/mL at the time point indicated.)”.
For `CC(C)(C)c1cc(NC(=O)Nc2ccc(Oc3ccnc(Nc4ccc5c(c4)NC(=O)C5)n3)c3ccccc23)n(-c2cccc(OCCN3CCOCC3)c2)n1` [Example 50, 1-(3-(tert-butyl)-1-(3-(2-morpholinoethoxy)phenyl)-1H-pyrazol-5-yl)-3-(4-((2-((2-oxoindolin-6-yl)amino)pyrimidin-4-yl)oxy)naphthalen-1-yl)urea], the IC50 was 2.7 nM in data set [1]; 31 nM in data set [3]; 34 nM in data set [4]; 1170 nM in data set [5]; 2 nM in data set [6]; < 1 nM in data set [7]. Moreover, in data set [2], the EC50 was found to be 16.4 nM. Besides, the “MTT Assay Cell viability at time point in d-U937 cells 4 h” value in data set [8] was “−ve (−ve and +ve indicate that the value is below and above respectively, the no significant effect threshold, defined as 30% inhibition at 1 μg/mL at the time point indicated.)”. In addition, the “MTT Assay Cell viability at time point in d-U937 cells 24 h” value in data set [8] was “−ve (−ve and +ve indicate that the value is below and above respectively, the no significant effect threshold, defined as 30% inhibition at 1 μg/mL at the time point indicated.)”.
As to `CC(C)(C)c1cc(NC(=O)Nc2ccc(Oc3ccnc(Nc4ccc5[nH]c(=O)oc5c4)n3)c3ccccc23)n(-c2ccc(OCCN3CCOCC3)cc2)n1` [Example 77, 1-(3-(tert-butyl)-1-(4-(2-morpholinoethoxy)phenyl)-1H-pyrazol-5-yl)-3-(4-((2-((2-oxo-2,3-dihydrobenzo[d]oxazol-6-yl)amino)pyrimidin-4-yl)oxy)naphthalen-1-yl)urea], the IC50 in data set [1] is 8.6 nM; in data set [3], 417 nM; in data set [4], 3.1 nM; in data set [5] it was 2290 nM; in data set [6], 93 nM; in data set [7], 27 nM. Besides, the EC50 in data set [2] is 3.5 nM. The “MTT Assay Cell viability at time point in d-U937 cells 4 h” value in data set [8] is “−ve (−ve and +ve indicate that the value is below and above respectively, the no significant effect threshold, defined as 30% inhibition at 1 μg/mL at the time point indicated.)”. Also, the “MTT Assay Cell viability at time point in d-U937 cells 24 h” value in data set [8] was “−ve (−ve and +ve indicate that the value is below and above respectively, the no significant effect threshold, defined as 30% inhibition at 1 μg/mL at the time point indicated.)”.
Consider `Cc1ccc(-n2nc(C(C)(C)C)cc2NC(=O)Nc2ccc(Oc3ccnc(Nc4ccc5[nH]ccc5c4)n3)c3ccccc23)cc1` [Example 1, 1-(4-((2-((1H-Indol-5-yl)amino)pyrimidin-4-yl)oxy)naphthalen-1-yl)-3-(3-(tert-butyl)-1-(p-tolyl)-1H-pyrazol-5-yl)urea], for which the IC50 in data set [1] was 4.7 nM; in data set [3], 187 nM; in data set [4], 2.2 nM; in data set [5] it was > 1610 nM; in data set [6] it was 50 nM; in data set [7], 21 nM. In addition, the EC50 in data set [2] is 1.7 nM. Further, in data set [8], the “MTT Assay Cell viability at time point in d-U937 cells 4 h” value was “−ve (−ve and +ve indicate that the value is below and above respectively, the no significant effect threshold, defined as 30% inhibition at 1 μg/mL at the time point indicated.)”. The “MTT Assay Cell viability at time point in d-U937 cells 24 h” value in data set [8] is “−ve (−ve and +ve indicate that the value is below and above respectively, the no significant effect threshold, defined as 30% inhibition at 1 μg/mL at the time point indicated.)”.
As to `CC(C)(C)c1cc(NC(=O)Nc2ccc(Oc3ccnc(Nc4ccc5c(c4)NC(=O)C5(C)C)n3)c3ccccc23)n(-c2ccc(OCCN3CCOCC3)cc2)n1` [Example 62, 1-(3-(tert-butyl)-1-(4-(2-morpholinoethoxy)phenyl)-1H-pyrazol-5-yl)-3-(4-((2-((3,3-dimethyl-2-oxoindolin-6-yl)amino)pyrimidin-4-yl)oxy)naphthalen-1-yl)urea], the IC50 was 11.6 nM in data set [1]; 98 nM in data set [3]; 22.7 nM in data set [4]; 1700 nM in data set [5]; 9 nM in data set [6]; 5 nM in data set [7]. Also, in data set [2], the EC50 was found to be 7.3 nM. For the same compound, in data set [8], the “MTT Assay Cell viability at time point in d-U937 cells 4 h” value was “−ve (−ve and +ve indicate that the value is below and above respectively, the no significant effect threshold, defined as 30% inhibition at 1 μg/mL at the time point indicated.)”. For the same compound, in data set [8], the “MTT Assay Cell viability at time point in d-U937 cells 24 h” value is “−ve (−ve and +ve indicate that the value is below and above respectively, the no significant effect threshold, defined as 30% inhibition at 1 μg/mL at the time point indicated.)”.
In the case of `CC(C)(C)c1cc(NC(=O)Nc2ccc(Oc3ccnc(Nc4ccc5c(c4)C(=O)NC5)n3)c3ccccc23)n(-c2ccc(OCCN3CCOCC3)cc2)n1` [Example 63, 1-(3-(tert-butyl)-1-(4-(2-morpholinoethoxy)phenyl)-1H-pyrazol-5-yl)-3-(4-((2-((3-oxoisoindolin-5-yl)amino)pyrimidin-4-yl)oxy)naphthalen-1-yl)urea], the IC50 in data set [1] was 0.3 nM; in data set [3], 14 nM; in data set [4] it was 2.8 nM; in data set [5], 184 nM; in data set [6], 10 nM; in data set [7] it was < 1 nM. The EC50 in data set [2] was 1.5 nM. Also, the “MTT Assay Cell viability at time point in d-U937 cells 4 h” value in data set [8] is “−ve (−ve and +ve indicate that the value is below and above respectively, the no significant effect threshold, defined as 30% inhibition at 1 μg/mL at the time point indicated.)”. In data set [8], the “MTT Assay Cell viability at time point in d-U937 cells 24 h” value was “−ve (−ve and +ve indicate that the value is below and above respectively, the no significant effect threshold, defined as 30% inhibition at 1 μg/mL at the time point indicated.)”.
